# Biological target: T1, LRRK2(G2019S mutation, GST-LRRK2(amino acids 970-2527)) (Homo sapiens, UniProt Q5S007, G2019S)
# T1 construct: GST-LRRK2(amino acids 970-2527); GST (N); purchased Life Technologies Corporation
# Test: LRRK2 Km ATP LanthaScreen Assay
# Assay type: biochemical
# Conditions: Km ATP LanthaScreen Assay; LRRK2 G2019S; mean IC50 values; Examples 185-215; read-out: LRRK2 IC5)
# Procedure, shortened: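 IC50 values are means of several runs in the Km-ATP LanthaScreen format, analysed by curve fitting of the LanthaScreen read-out.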
# T1 sequence (Q5S007 970-2527 G2019S): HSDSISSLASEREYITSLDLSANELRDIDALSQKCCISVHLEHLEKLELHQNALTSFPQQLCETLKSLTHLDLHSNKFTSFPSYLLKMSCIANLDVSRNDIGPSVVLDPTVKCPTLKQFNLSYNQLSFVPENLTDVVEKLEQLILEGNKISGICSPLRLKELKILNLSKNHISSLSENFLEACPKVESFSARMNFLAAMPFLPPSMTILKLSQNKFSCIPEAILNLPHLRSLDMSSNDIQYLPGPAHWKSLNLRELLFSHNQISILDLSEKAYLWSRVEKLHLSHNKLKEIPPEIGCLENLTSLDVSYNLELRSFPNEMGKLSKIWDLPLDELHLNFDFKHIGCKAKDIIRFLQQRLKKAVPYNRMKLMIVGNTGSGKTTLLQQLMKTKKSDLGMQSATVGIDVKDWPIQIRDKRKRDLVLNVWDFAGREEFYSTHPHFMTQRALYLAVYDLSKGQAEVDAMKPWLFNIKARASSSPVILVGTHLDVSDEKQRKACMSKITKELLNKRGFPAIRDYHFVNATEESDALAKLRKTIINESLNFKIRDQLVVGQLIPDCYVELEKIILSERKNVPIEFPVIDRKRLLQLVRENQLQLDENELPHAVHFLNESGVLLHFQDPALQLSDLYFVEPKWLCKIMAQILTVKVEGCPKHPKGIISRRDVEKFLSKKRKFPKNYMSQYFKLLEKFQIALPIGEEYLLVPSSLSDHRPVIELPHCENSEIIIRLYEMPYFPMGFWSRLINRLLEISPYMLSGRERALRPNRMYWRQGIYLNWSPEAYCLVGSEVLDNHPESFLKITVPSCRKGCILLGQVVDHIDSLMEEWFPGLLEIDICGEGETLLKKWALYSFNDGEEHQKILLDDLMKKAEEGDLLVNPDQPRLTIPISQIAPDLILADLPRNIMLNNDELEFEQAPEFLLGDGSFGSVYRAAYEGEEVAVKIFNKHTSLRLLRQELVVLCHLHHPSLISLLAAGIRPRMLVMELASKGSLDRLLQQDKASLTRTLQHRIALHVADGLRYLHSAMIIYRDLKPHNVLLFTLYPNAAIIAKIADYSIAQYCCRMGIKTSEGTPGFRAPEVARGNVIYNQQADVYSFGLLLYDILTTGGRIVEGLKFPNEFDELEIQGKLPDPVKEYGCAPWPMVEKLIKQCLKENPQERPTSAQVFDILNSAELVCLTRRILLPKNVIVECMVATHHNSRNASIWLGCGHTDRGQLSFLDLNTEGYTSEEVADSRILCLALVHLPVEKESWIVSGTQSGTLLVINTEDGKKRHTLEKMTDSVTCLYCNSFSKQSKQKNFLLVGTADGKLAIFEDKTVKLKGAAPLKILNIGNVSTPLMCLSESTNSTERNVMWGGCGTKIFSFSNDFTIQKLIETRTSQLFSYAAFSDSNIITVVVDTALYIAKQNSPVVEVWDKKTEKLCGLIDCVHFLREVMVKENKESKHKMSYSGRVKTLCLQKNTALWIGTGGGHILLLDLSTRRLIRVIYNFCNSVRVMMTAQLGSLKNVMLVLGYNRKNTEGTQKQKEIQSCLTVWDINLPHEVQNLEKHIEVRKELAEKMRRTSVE
row,SMILES,IC50 [nM]
1,Cc1nnc(C2CCN(c3cc(-c4n[nH]c5ccc(OC(C)C)cc45)ccn3)CC2)o1 [Example 215],6
2,CC(C)Oc1ccc2[nH]nc(-c3ccnc(N4CCn5nc(C6CC6)nc5C4)c3)c2c1 [Example 214],15.4
3,CC(C)Oc1ccc2[nH]nc(-c3ccnc(N4CCN(C5CC5)CC4)c3)c2c1 [Example 210],7.4
4,Cc1nc2c(o1)CN(c1cc(-c3n[nH]c4ccc(OC(C)C)cc34)ccn1)CC2 [Example 198],9.2
5,CC(C)Oc1ccc2[nH]nc(-c3ccnc(N4CCCN(c5ncccn5)CC4)c3)c2c1 [Example 209],25.5
6,CC(C)Oc1ccc2[nH]nc(-c3ccnc(N4CCCC(c5nncn5C)C4)c3)c2c1 (centres unmarked) [Example 193],6.2

# Same assay, conditions: Km ATP LanthaScreen Assay; LRRK2 G2019S; mean IC50 values; read-out: LRRK2 IC50
row,SMILES,IC50 [nM]
1,CC(C)Oc1ccc2[nH]nc(-c3ccnc(NC(=O)c4ccccc4-n4cncn4)c3)c2c1 [Example 146],36.8
2,CC(C)Oc1ccc2[nH]nc(-c3ccnc(NC(=O)C4CC45CCCC5)c3)c2c1 (centres unmarked) [Example 160],140
3,CN(C)c1cc(-c2n[nH]c3ccccc23)ccn1 [Example 30],33
4,CC(C)Oc1ccc2[nH]nc(-c3ccnc(NC(=O)c4ccno4)c3)c2c1 [Example 142],21.4
5,CN1CCN(c2cc(-c3n[nH]c4ccccc34)ccn2)CC1=O [Example 46],21
6,CC(CO)Nc1cc(-c2n[nH]c3ccc(OC(C)C)cc23)ccn1 (centres unmarked) [Example 129],2120
7,c1ccc2c(-c3ccnc(N4CCC(CN5CCOCC5)CC4)c3)n[nH]c2c1 [Example 40],28
8,[2H]C1([2H])OC([2H])([2H])C([2H])([2H])N(c2cc(-c3n[nH]c4ccc(OC(C)C)cc34)ccn2)C1([2H])[2H] [Example 281],1.4
9,CN1CCN(c2cc(-c3n[nH]c4ccc(-c5ccnc(O)c5)cc34)ccn2)CC1 [Example 123],2.7
10,CN1CCN(c2cc(-c3n[nH]c4ccc(OC(F)(F)F)cc34)ccn2)CC1 [Example 234],82.5
11,COCCN(C)c1cc(-c2n[nH]c3ccccc23)ccn1 [Example 3],48
12,CN(Cc1ccc2[nH]nc(-c3ccnc(N4CCOCC4)c3)c2c1)Cc1ccco1 [Example 94],13
13,CN1CCC(CN(C)c2cc(-c3n[nH]c4ccccc34)ccn2)CC1 [Example 50],40
14,CC(C)Oc1ccc2[nH]nc(-c3ccnc(NC(=O)Cc4ccsc4)c3)c2c1 [Example 157],34.4
15,FC1(F)CCN(c2cc(-c3n[nH]c4ccc(OC(F)(F)F)cc34)ccn2)C1 [Example 245],1490
16,O=C1CN(c2cc(-c3n[nH]c4ccccc34)ccn2)CCCN1 [Example 48],54
17,OC1(c2ccccn2)CCN(c2cc(-c3n[nH]c4ccccc34)ccn2)CC1 [Example 23],20
18,CC(C)Oc1ccc2[nH]nc(-c3ccnc(N4CC(n5cnnc5)C4)c3)c2c1 [Example 180],10.2
19,N#CC1(c2ccccn2)CCN(c2cc(-c3n[nH]c4ccccc34)ccn2)CC1 [Example 17],16
20,CC(C)Oc1ccc2[nH]nc(-c3ccnc(NC(=O)c4cnc(C(C)C)nc4)c3)c2c1 [Example 147],70.8

row,SMILES,IC50 [nM]
1,CCN(CC)CCOc1ccc2[nH]nc(-c3ccnc(N4CCOCC4)c3)c2c1 [Example 80],37
2,FC(F)(F)Oc1ccc2[nH]nc(-c3ccnc(N4CCCC4)c3)c2c1 [Example 233],130
3,COC1CN(c2cc(-c3n[nH]c4ccc(OC(F)(F)F)cc34)ccn2)C1 [Example 246],289
4,COC1CN(c2cc(-c3n[nH]c4ccccc34)ccn2)C1 [Example 67],31
5,c1ccc2c(-c3ccnc(NCCn4ccnc4)c3)n[nH]c2c1 [Example 64],35
6,FC1(F)CN(c2cc(-c3n[nH]c4ccc(OC(F)(F)F)cc34)ccn2)C1 [Example 247],369
7,O=C1CN(c2cc(-c3n[nH]c4ccccc34)ccn2)CCN1 [Example 49],23
8,CC(C)Oc1ccc2[nH]nc(-c3ccnc(NC(=O)C4CCOCC4)c3)c2c1 [Example 164],27.7
9,CC(C)Oc1ccc2[nH]nc(-c3ccnc(NC(=O)C4CC4c4cncnc4)c3)c2c1 (centres unmarked) [Example 158],30.9
10,CCOc1ccc2[nH]nc(-c3ccnc(N4CCC4)c3)c2c1 [Example 230],29.4
11,CC(C)Oc1ccc2[nH]nc(-c3ccnc(NC(=O)c4ccccn4)c3)c2c1 [Example 144],29.2
12,CC(C)Oc1ccc2[nH]nc(-c3ccnc(N4C[C@@H]5C[C@H]4CO5)c3)c2c1 [Example 176],7.1
13,FC(F)(F)CN1CCN(c2cc(-c3n[nH]c4ccc(OC(F)(F)F)cc34)ccn2)CC1 [Example 237],279
14,CN(CC1CCC(=O)N1)c1cc(-c2n[nH]c3ccccc23)ccn1 (centres unmarked) [Example 69],75
15,OCCNc1cc(-c2n[nH]c3ccccc23)ccn1 [Example 9],54
16,CC(C)COc1ccc2[nH]nc(-c3ccnc(N4CCOCC4)c3)c2c1 [Example 84],5.9
17,CN1CC=C2CN(c3cc(-c4n[nH]c5ccccc45)ccn3)CC21 (centres unmarked) [Example 55],14
18,O=C(O)[C@@H]1CCCN(c2cc(-c3n[nH]c4ccccc34)ccn2)C1 [Example 52],31
19,FC(F)=CCCOc1ccc2[nH]nc(-c3ccnc(N4CCOCC4)c3)c2c1 [Example 81],4.8
20,FC(F)(F)Oc1ccc2[nH]nc(-c3ccnc(N4CCN(n5cccn5)CC4)c3)c2c1 [Example 239],233

# Same assay, conditions: Km ATP LanthaScreen; mean IC50 of several tests; read-out: LRRK2 IC50
row,SMILES,IC50 [nM]
1,Cn1cc(-c2ccc3[nH]nc(-c4ccnc(N5CCCCC5)c4)c3c2)cn1 [Example 266],2.4
2,CC(C)Oc1ccc2[nH]nc(-c3ccnc(NS(=O)(=O)c4cccc(F)c4)c3)c2c1 [Example 256],42.5
3,CC(C)Oc1ccc2[nH]nc(-c3ccnc(N4CCCC4=O)c3)c2c1 [Example 302],24
4,CCN(c1cccc(C)c1)c1ccc2[nH]nc(-c3ccnc(N4CCOCC4)c3)c2c1 [Example 115],1570
5,c1cc(-c2ccc3[nH]nc(-c4ccnc(N5CCOCC5)c4)c3c2)ccn1 [Example 97],13.7
6,Cc1cccc(Nc2ccc3[nH]nc(-c4ccnc(N5CCOCC5)c4)c3c2)c1 [Example 114],28.7
7,Cn1cc(-c2ccc3[nH]nc(-c4ccnc(N5C[C@H](F)[C@@H](F)C5)c4)c3c2)cn1 [Example 271],2.2
8,COC1CCN(c2cc(-c3n[nH]c4ccc(OC(C)C)cc34)ccn2)CC1 [Example 290],6
9,COC(=O)c1ccc2[nH]nc(-c3ccnc(N4CCOCC4)c3)c2c1 [Example 393],15
10,Cn1cc(-c2ccc3[nH]nc(-c4ccnc(N5CCC(n6cncn6)CC5)c4)c3c2)cn1 [Example 270],2.2
11,OCc1ccc2[nH]nc(-c3ccnc(N4CCOCC4)c3)c2c1 [Example 86],16.4
12,CCCOc1ccc2[nH]nc(-c3ccnc(N4CCOCC4)c3)c2c1 [Example 301],12
13,Cc1ccnc(-c2ccc3[nH]nc(-c4ccnc(N5CCOCC5)c4)c3c2)n1 [Example 336],33
14,CCS(=O)(=O)c1ccc2[nH]nc(-c3ccnc(N4CCOCC4)c3)c2c1 [Example 371],48
15,CC(C)Oc1ccc2[nH]nc(-c3ccnc(NS(C)(=O)=O)c3)c2c1 [Example 395],20
16,Fc1ccc2[nH]nc(-c3ccnc(N4CCOCC4)c3)c2c1 [Example 391],61
17,c1cc(-c2n[nH]c3ccc(-c4cn[nH]c4)cc23)cc(N2CCOCC2)n1 [Example 344],< 0.6
18,Cn1cc(-c2ccc3[nH]nc(-c4ccnc(N5CCN(c6ccncn6)CC5)c4)c3c2)cn1 [Example 277],2.1
19,Oc1ccnc(F)c1-c1ccc2[nH]nc(-c3ccnc(N4CCOCC4)c3)c2c1 [Example 119],34

row,SMILES,IC50 [nM]
1,CCOc1nccnc1-c1ccc2[nH]nc(-c3ccnc(N4CCOCC4)c3)c2c1 [Ex 390],1.6
2,Cn1cc(-c2ccc3[nH]nc(-c4ccnc(N5CC6CCC(C5)O6)c4)c3c2)cn1 [Example 380],1.9
3,CCOc1ccc2[nH]nc(-c3ccnc(N[C@@H](C)COC)c3)c2c1 [Example 356],10
4,CC(C)Oc1ccc2[nH]nc(-c3ccnc(NS(=O)(=O)c4ccc5c(c4)OCCO5)c3)c2c1 [Example 260],52.3
5,CC(C)Oc1ccc2[nH]nc(-c3ccnc(N4CCN(CCO)CC4)c3)c2c1 [Example 299],2
6,c1cnnc(-c2ccc3[nH]nc(-c4ccnc(N5CCOCC5)c4)c3c2)c1 [Example 326],6.4
7,OCc1cc2c(-c3ccnc(N4CCOCC4)c3)n[nH]c2cc1F [Example 347],38
8,c1ccc2c(-c3ccnc(N4CCNCC4)c3)n[nH]c2c1 [Example 75],80
9,Cn1cnnc1-c1ccc2[nH]nc(-c3ccnc(N4CCOCC4)c3)c2c1 [Ex 341],1.4
10,CCOc1ccc2[nH]nc(-c3ccnc(N4CCN(S(C)(=O)=O)CC4)c3)c2c1 [Example 360],< 0.6
11,Oc1ccc(-c2ccc3[nH]nc(-c4ccnc(N5CCOCC5)c4)c3c2)cn1 [Example 315],39
12,c1ccc(-c2ccc3[nH]nc(-c4ccnc(N5CCOCC5)c4)c3c2)nc1 [Example 99],13.7
13,FC1CN(c2cc(-c3n[nH]c4ccc(-c5cccnc5)cc34)ccn2)C1 [Example 306],2.9
14,COCCOc1ccc2[nH]nc(-c3ccnc(N4CCN(C)C(=O)C4)c3)c2c1 [Example 368],30
15,c1ccc(Cc2ccc3[nH]nc(-c4ccnc(N5CCOCC5)c4)c3c2)cc1 [Example 116],45
16,Cc1nn(C)cc1-c1ccc2[nH]nc(-c3ccnc(N4CCOCC4)c3)c2c1 [Example 318],17
17,Cc1ccc2[nH]nc(-c3ccnc(N4CCOCC4)c3)c2c1 [Example 124],9.6
18,c1cc(-c2n[nH]c3ccc(OCC4CC4)cc23)cc(N2CCOCC2)n1 [Example 373],84

# Reference: US9440952B2, “Compounds inhibiting leucine-rich repeat kinase enzyme activity” (Merck Sharp & Dohme Corp., priority 2013, dated 2016)
